Source: PubChem BioAssay (NCI)
Several values for one entry are separate records, joined by “and”; a condition that tells them apart may be missing. Identical values can stand only once.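 Five concentrations, 48 hours, 96-well plates. Abbreviation: GI50, concentration required for 50% inhibition of growth. TGI: concentration producing complete growth inhibition.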

Columns and labels:
Assay in all cases: inhibition of tumour cell growth, NCI panel, 48 h
BT-549 breast = tested on: BT-549 breast
HCT-116 colon = tested on: HCT-116 colon
HT29 colon = tested on: HT29 colon
IGROV1 ovarian = tested on: IGROV1 ovarian
M14 melanoma = tested on: M14 melanoma
NCI-H226 lung = tested on: NCI-H226 lung
OVCAR-4 ovarian = tested on: OVCAR-4 ovarian
SK-OV-3 ovarian = tested on: SK-OV-3 ovarian
TK-10 renal = tested on: TK-10 renal
UO-31 renal = tested on: UO-31 renal

Row | SMILES | GI50 (BT-549 breast) [nM] | TGI (BT-549 breast) | GI50 (HCT-116 colon) | TGI (HCT-116 colon) | GI50 (HT29 colon) | TGI (HT29 colon) | GI50 (IGROV1 ovarian) | TGI (IGROV1 ovarian) [nM] | GI50 (M14 melanoma) | TGI (M14 melanoma) [nM] | GI50 (NCI-H226 lung) | TGI (NCI-H226 lung) | GI50 (OVCAR-4 ovarian) | TGI (OVCAR-4 ovarian) [µM] | GI50 (SK-OV-3 ovarian) | TGI (SK-OV-3 ovarian) [µM] | GI50 (TK-10 renal) [nM] | TGI (TK-10 renal) | GI50 (UO-31 renal) | TGI (UO-31 renal)
1 | Cc1cc2c(cc1C)[n+](Cc1ccc3ccccc3n1)cn2Cc1ccc2ccccc2n1 | 1320 | 3200 nM | 407 nM | 1740 nM | 331 nM | 1630 nM | 570 nM | 2210 | 586 nM | 2420 | 1590 nM | 4010 nM | 1240 nM | 4.09 | 1690 nM | 4.13 | 1380 | 2740 nM | 1330 nM | 2840 nM
2 | Cc1cc(S(N)(=O)=O)c(S/C(=N\Nc2ccc([N+](=O)[O-])cc2)c2ccc3ccccc3c2)cc1Cl | 20500 | 69700 nM | 4670 nM | > 100000 nM | 73200 nM | > 100000 nM | 54300 nM | > 100000 | 44100 nM | > 100000 | 18400 nM | 38300 nM | 61100 nM | > 100 | 20400 nM | 55.8 | 7460 | 31700 nM | 56000 nM | > 100000 nM
3 | O=C1N[C@H]2[C@H](O)[C@H](O)[C@@H](O)[C@H](O)[C@@H]2c2cc3c(c(O)c21)OCO3 | 18.7 | 68.4 nM and 142 nM | 129 nM and 253 nM | 682 nM and 1420 nM and 144 nM | 300 nM and 360 nM | 3840 nM and 440 nM | 349 nM and 757 nM | – | 229 nM and 34.6 nM | – | 273 nM and 365 nM | 1590 nM and 195 nM | 189 nM and 373 nM | – | 300 nM and 330 nM | – | 56.1 | 3550 nM and 1690 nM | 333 nM and 522 nM | 2780 nM and 398 nM
4 | CN(C)c1ccc(C(=C2C=CC(=[N+](C)C)C=C2)c2ccccc2Cl)cc1 | 373 | 2560 nM | 155 nM | 605 nM | 167 nM | 1030 nM | 365 nM | 1340 | 274 nM | 942 | 430 nM | 2000 nM | 360 nM | 1.6 | 314 nM | 0.992 | 345 | 1410 nM | 762 nM | 6490 nM
5 | CC12CCC(O)CC1=CCC1C2CCC2(C)C(c3cccnc3)=CCC12 (stereo unspecified) | > 100000 | > 100000 nM | > 100000 nM | > 100000 nM | 82200 nM | > 100000 nM | > 100000 nM | > 100000 | > 100000 nM | > 100000 | > 100000 nM | > 100000 nM | > 100000 nM | > 100 | > 100000 nM | > 100 | > 100000 | > 100000 nM | > 100000 nM | > 100000 nM
